The results in this text go back to patent EP0373623A2, “Pharmaceutical compositions useful in potentiating natural killer cell activity” (MERRELL DOW PHARMACEUTICALS INC., priority 1988, dated 1990).

The subject of this assay is Hepatic metastases. The experiment in a line: Induced hepatic metastases after intrasplenic tumor cell injection. The settings on record: DAP 100 mg/kg; for Metastic foci: mean ± S.E., n=8; for % Reduction: reduction in metastic foci from PBS control group. Type of assay: in vivo, C57BL/6 mice. The procedure: Hepatic metastases were induced as follows. C57BL/6 mice were anesthetized by […] of pentobarbital. The mice were prepped with 70% ethanol, dried with a sterile gauze, and then, with the use of sterile scissors, a small left subcostal incision was made. The spleen was exposed, and its short gastric vessels along with the gastrosplenic ligament were cut, allowing the spleen to be brought onto the animal's abdominal wall attached to its splenic pedicle. […] of a single cell suspension containing 3 x 10⁵ tumor cells in HBSS was injected into the upper pole of the exposed extraabdominal spleen. After the injection was completed, the needle was removed, and a period of 1 minute was allowed to elapse to permit tumor cells to be flushed into the portal circulation. The splenic pedicle was clipped, the spleen was removed, and splenic pedicle was dropped i.p. The abdominal wall musculature and skin were closed in one layer. The animals were randomly allocated to their respective treatment groups and were allowed to recover. By day 3 after tumor injection, micrometastases were apparent histologically.
Each group was then treated with DAP, intraperitonealy, subcutaneously, or orally. A control group was treated with phosphate buffered saline (PBS). Metastic foci was determined and the percent reduction in metastic foci from the control group was determined with each group treated with DAP as follows: […]

On to `CC(=O)NCCCCNC(C)=O` [DAP, Diacetylputrescine], for which the Metastic foci was 40.8 ± 14.7 (d1-10, i.p.); 27.2 ± 7.1 (d1-10, p.o.); 31.0 ± 8.4 (d1-10, s.c.). The “% Reduction” value is, setting by setting: (d1-10, i.p.) 65.9%; (d1-10, p.o.) 77.3%; (d1-10, s.c.) 74.1%.
